PubChem BioAssay AID1963961 (Molecular Pharmacology Branch, DTP, NCI, 2024)
Values joined by “and” are separate entries in the source; they are usually repeats but may differ in a detail not shown here. Equal values may be shown once. One block for each compound: values may come before it.

Tested on: K98450-129-R-PDC multicell spheroids, viability
Assay: Anticancer human tumor K98450-129-R-PDC patient-derived colon adenocarcinoma cell line growth inhibition [PI3K]
Conditions: for viability, T/C: stronger effect = lower value
Summary of the method: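 Agents were dosed from a top concentration near clinical Cmax (otherwise 10 microM) in half-log decrements, alone or combined with PI3K inhibitors. The spheroids contain tumor cells plus endothelial (HUVEC) and MSC stroma; viability is measured.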

[1] = curve of first compound, second compound 0.00316 µM
[2] = curve of first compound, second compound 0.01 µM
[3] = curve of first compound, second compound 0.0316 µM
[4] = curve of first compound, second compound 0.1 µM
[5] = curve of first compound, second compound 0.316 µM
[6] = curve of first compound, second compound 1 µM
[7] = second compound 0.00316 µM, first compound 0.0316 µM
[8] = second compound 0.00316 µM, first compound 0.1 µM
[9] = second compound 0.01 µM, first compound 0.0316 µM
[10] = second compound 0.01 µM, first compound 0.1 µM
[11] = second compound 0.0316 µM, first compound 0.000316 µM
[12] = second compound 0.0316 µM, first compound 0.001 µM
[13] = second compound 0.0316 µM, first compound 0.00316 µM
[14] = second compound 0.0316 µM, first compound 0.01 µM
[15] = second compound 0.0316 µM, first compound 0.0316 µM
[16] = second compound 0.0316 µM, first compound 0.1 µM
[17] = second compound 0.1 µM, first compound 0.000316 µM
[18] = second compound 0.1 µM, first compound 0.001 µM
[19] = second compound 0.1 µM, first compound 0.00316 µM
[20] = second compound 0.1 µM, first compound 0.01 µM
[21] = second compound 0.1 µM, first compound 0.0316 µM
[22] = second compound 0.1 µM, first compound 0.1 µM
[23] = second compound 0.316 µM, first compound 0.000316 µM
[24] = second compound 0.316 µM, first compound 0.001 µM
[25] = second compound 0.316 µM, first compound 0.00316 µM
[26] = second compound 0.316 µM, first compound 0.01 µM
[27] = second compound 0.316 µM, first compound 0.0316 µM
[28] = second compound 0.316 µM, first compound 0.1 µM
[29] = second compound 1 µM, first compound 0.000316 µM
[30] = second compound 1 µM, first compound 0.001 µM
[31] = second compound 1 µM, first compound 0.00316 µM
[32] = second compound 1 µM, first compound 0.01 µM
[33] = second compound 1 µM, first compound 0.0316 µM
[34] = second compound 1 µM, first compound 0.1 µM
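Note: spheroids exposed to agents for seven days before read-out.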

- IC50 [1]: > 100 nM
- IC50 [2]: > 100 nM
- IC50 [3]: > 100 nM
- IC50 [4]: > 100 nM
- IC50 [5]: > 100 nM
- IC50 [6]: 50.7 nM
SMILES: CC(C)n1nc(-c2ccc3oc(N)nc3c2)c2c(N)ncnc21 + COc1c(OCCCN2CCOCC2)ccc2c3n(c(=NC(=O)c4cnc(N)nc4)nc12)CCN3
- viability, T/C (second compound 0.00316 µM, first compound 0.000316 µM): 107%
- viability, T/C (second compound 0.00316 µM, first compound 0.001 µM): 97.4%
- viability, T/C (second compound 0.00316 µM, first compound 0.00316 µM): 107%
- viability, T/C (second compound 0.00316 µM, first compound 0.01 µM): 83.6%
- viability, T/C [7]: 94.1%
- viability, T/C [8]: 72.2%
- viability, T/C (second compound 0.01 µM, first compound 0.000316 µM): 114%
- viability, T/C (second compound 0.01 µM, first compound 0.001 µM): 86.4%
- viability, T/C (second compound 0.01 µM, first compound 0.00316 µM): 96%
- viability, T/C (second compound 0.01 µM, first compound 0.01 µM): 92.2%
- viability, T/C [9]: 94.9%
- viability, T/C [10]: 69%
- viability, T/C [11]: 116%
- viability, T/C [12]: 86%
- viability, T/C [13]: 85.2%
- viability, T/C [14]: 67.9%
- viability, T/C [15]: 74%
- viability, T/C [16]: 56.9%
- viability, T/C [17]: 76.6%
- viability, T/C [18]: 93%
- viability, T/C [19]: 81.7%
- viability, T/C [20]: 78.7%
- viability, T/C [21]: 67.1%
- viability, T/C [22]: 55.5%
- viability, T/C [23]: 58.1%
- viability, T/C [24]: 60.9%
- viability, T/C [25]: 66.1%
- viability, T/C [26]: 70.4%
- viability, T/C [27]: 73.1%
- viability, T/C [28]: 47.7%
- viability, T/C [29]: 53%
- viability, T/C [30]: 59.4%
- viability, T/C [31]: 58.5%
- viability, T/C [32]: 69.8%
- viability, T/C [33]: 54.8%
- viability, T/C [34]: 35.2%

- IC50 (curve of compound): > 100 nM
SMILES: Cn1ncnc1[C@H]1c2n[nH]c(=O)c3cc(F)cc(c23)N[C@@H]1c1ccc(F)cc1
- viability, T/C (compound 0.000316 µM): 104% [middle of 4 runs]
- viability, T/C (compound 0.001 µM): 95% [middle of 4 runs]
- viability, T/C (compound 0.00316 µM): 103% [middle of 4 runs]
- viability, T/C (compound 0.0316 µM): 104% [middle of 4 runs]
- viability, T/C (compound 0.1 µM): 95.2% [middle of 4 runs]

- IC50 [3]: > 100 nM
- IC50 [4]: > 100 nM
- IC50 [5]: > 100 nM
- IC50 [6]: > 100 nM
- IC50 (curve of first compound, second compound 3.16 µM): > 100 nM
- IC50 (curve of first compound, second compound 10 µM): > 100 nM
SMILES: CC(=O)c1c(C)c2cnc(Nc3ccc(N4CCNCC4)cn3)nc2n(C2CCCC2)c1=O + Cc1nc(NC(=O)N2CCCC2C(N)=O)sc1-c1ccnc(C(C)(C)C(F)(F)F)c1
- viability, T/C [11]: 110%
- viability, T/C [12]: 101%
- viability, T/C [13]: 104%
- viability, T/C [14]: 104%
- viability, T/C [15]: 100%
- viability, T/C [16]: 97.9%
- viability, T/C [17]: 108%
- viability, T/C [18]: 95.2%
- viability, T/C [19]: 97.9%
- viability, T/C [20]: 93.7%
- viability, T/C [21]: 106%
- viability, T/C [22]: 98%
- viability, T/C [23]: 104%
- viability, T/C [24]: 107%
- viability, T/C [25]: 95.3%
- viability, T/C [26]: 93.3%
- viability, T/C [27]: 103%
- viability, T/C [28]: 99%
- viability, T/C [29]: 90%
- viability, T/C [30]: 92.9%
- viability, T/C [31]: 91.3%
- viability, T/C [32]: 89.7%
- viability, T/C [33]: 98.8%
- viability, T/C [34]: 95.9%
- viability, T/C (second compound 3.16 µM, first compound 0.000316 µM): 88.2%
- viability, T/C (second compound 3.16 µM, first compound 0.001 µM): 86.8%
- viability, T/C (second compound 3.16 µM, first compound 0.00316 µM): 84.6%
- viability, T/C (second compound 3.16 µM, first compound 0.01 µM): 86.3%
- viability, T/C (second compound 3.16 µM, first compound 0.0316 µM): 92.1%
- viability, T/C (second compound 3.16 µM, first compound 0.1 µM): 86.3%
- viability, T/C (second compound 10 µM, first compound 0.000316 µM): 79.4%
- viability, T/C (second compound 10 µM, first compound 0.001 µM): 74.6%
- viability, T/C (second compound 10 µM, first compound 0.00316 µM): 77.3%
- viability, T/C (second compound 10 µM, first compound 0.01 µM): 79.8%
- viability, T/C (second compound 10 µM, first compound 0.0316 µM): 80.9%
- viability, T/C (second compound 10 µM, first compound 0.1 µM): 70.3%

- IC50 (curve of compound): > 100 nM
SMILES: CC(=O)c1c(C)c2cnc(Nc3ccc(N4CCNCC4)cn3)nc2n(C2CCCC2)c1=O
- viability, T/C (compound 0.000316 µM): 105% [middle of 4 runs]
- viability, T/C (compound 0.001 µM): 106% [middle of 4 runs]
- viability, T/C (compound 0.00316 µM): 104% [middle of 4 runs]
- viability, T/C (compound 0.01 µM): 104% (2×) and 102% and 99.6%
- viability, T/C (compound 0.0316 µM): 101% [middle of 4 runs]
- viability, T/C (compound 0.1 µM): 95.5% [middle of 4 runs]

- IC50 [1]: > 10000 nM
- IC50 [2]: > 10000 nM
- IC50 [3]: > 10000 nM
- IC50 [4]: > 10000 nM
- IC50 [5]: > 10000 nM
- IC50 [6]: 4900 nM
SMILES: CC(Cn1ccc(-c2ccc(C#N)c(Cl)c2)n1)NC(=O)c1cc(C(C)O)[nH]n1 (centres undefined) + COc1c(OCCCN2CCOCC2)ccc2c3n(c(=NC(=O)c4cnc(N)nc4)nc12)CCN3
- viability, T/C [7]: 102%
- viability, T/C [8]: 97.7%
- viability, T/C (second compound 0.00316 µM, first compound 0.316 µM): 117%
- viability, T/C (second compound 0.00316 µM, first compound 1 µM): 104%
- viability, T/C (second compound 0.00316 µM, first compound 3.16 µM): 107%
- viability, T/C (second compound 0.00316 µM, first compound 10 µM): 111%
- viability, T/C [9]: 116%
- viability, T/C [10]: 95%
- viability, T/C (second compound 0.01 µM, first compound 0.316 µM): 105%
- viability, T/C (second compound 0.01 µM, first compound 1 µM): 102%
- viability, T/C (second compound 0.01 µM, first compound 3.16 µM): 90.7%
- viability, T/C (second compound 0.01 µM, first compound 10 µM): 89.5%
- viability, T/C [15]: 88.9%
- viability, T/C [16]: 92.9%
- viability, T/C (second compound 0.0316 µM, first compound 0.316 µM): 80.5%
- viability, T/C (second compound 0.0316 µM, first compound 1 µM): 89.6%
- viability, T/C (second compound 0.0316 µM, first compound 3.16 µM): 93.1%
- viability, T/C (second compound 0.0316 µM, first compound 10 µM): 75.8%
- viability, T/C [21]: 74.9%
- viability, T/C [22]: 79%
- viability, T/C (second compound 0.1 µM, first compound 0.316 µM): 82.1%
- viability, T/C (second compound 0.1 µM, first compound 1 µM): 95.2%
- viability, T/C (second compound 0.1 µM, first compound 3.16 µM): 90%
- viability, T/C (second compound 0.1 µM, first compound 10 µM): 71.1%
- viability, T/C [27]: 47.2%
- viability, T/C [28]: 59.4%
- viability, T/C (second compound 0.316 µM, first compound 0.316 µM): 64.2%
- viability, T/C (second compound 0.316 µM, first compound 1 µM): 62.1%
- viability, T/C (second compound 0.316 µM, first compound 3.16 µM): 72.1%
- viability, T/C (second compound 0.316 µM, first compound 10 µM): 43.6%
- viability, T/C [33]: 48.5%
- viability, T/C [34]: 59.8%
- viability, T/C (second compound 1 µM, first compound 0.316 µM): 63.2%
- viability, T/C (second compound 1 µM, first compound 1 µM): 52.1%
- viability, T/C (second compound 1 µM, first compound 3.16 µM): 54.2%
- viability, T/C (second compound 1 µM, first compound 10 µM): 44%
